The source of these data is patent US20070202163A1 (priority 2005, published 2007).

“Also recorded” adds a separate entry of the source. Counter-ions that a name gives are not always drawn. Like-named read-outs stand apart in the source and are kept apart here.

The conditions of data set [1]: 7.3 mg in 100 μl of a saturated solution of mannitol, monitored over 5 minutes.
For data set [2] the following is noted: cited from earlier work.
Data set [3] is described as follows: in vivo. The settings on record: for AUC(0-inf) / AUC(0-t) / Cmax / Tmax / half-life: both, NZW, rabbit, plasma. As for the experimental part: Sublingual tablets or IM doses were administered using a Randomized Crossover study design over 5-consecutive weeks.
(§1) Animals were evaluated for viability once-daily throughout the study. Cageside clinical observations were performed twice-daily from the initiation of dosing until the end of treatment. Body weights were obtained upon receipt, on Study Day 1 and weekly thereafter.
Blood samples (approximately 1 mL/time point) were obtained from an indwelling arterial catheter placed approximately 30-minutes prior to initiation of sample collection. Samples were collected immediately prior to dosing (pre-dose baseline) and at approximately 5, 10, 15, 20, 30, 40, 60, 90, 120, and 180 minutes after dosing. At later time points, the samples were obtained by direct needle puncture or by removing the catheter and allowing blood to flow directly from the animal's ear artery into the blood collection tube.
Immediately after collection, the tube was inverted several times to disperse the anticoagulant and then placed on ice until centrifugation. The blood samples were centrifuged (˜2000×g for 10 minutes at 8° C.) within approximately 15-30 minutes of collection to separate the cellular and plasma fractions. The plasma fraction was harvested into screw-capped tubes and stored at approximately −70° C. (±10° C.) until analyzed. […] The remaining red blood cell fraction was discarded.
The method was validated based on the commercial method developed by ESA Biosciences, Inc. (Chelmsford, Mass.). All standards and reagents for the extraction and chromatography were purchased from ESA. Plasma samples, calibrators and quality control (QC) samples were extracted as follows: Each 0.50 mL aliquot of calibration curve standard, QC or unknown sample was mixed with 0.50 mL of working internal standard (I.S.) stock solution (dihydroxybenzylamine [DHBA], 10 ng/mL) in an ESA extraction tube containing alumina and buffer. The extraction tubes were capped and placed on a rocking shaker for 10 minutes. The tubes were placed on a vacuum manifold and the liquid was aspirated to waste. Each tube was then filled with wash solution which was aspirated to waste. Eluting solution (200 μL) was added to each tube. The tubes were capped and vortex-mixed for 10 minutes. The eluting solution was then forced from the tube under pressure into a microcentrifuge tube. The samples were centrifuged for 15 minutes, transferred to an autosampler vial and a 50 μl aliquot was injected into the HPLC.
A freshly prepared standard curve was analyzed along with samples on each day of analysis. […] Calibrator concentrations were 0.5, 1, 2, 4, 8, 12, 16 and 20 ng/mL as determined in the validation study. […] For the determination of unknown sample concentrations, two standard curve ranges were used; 0.5 to 20 ng/mL and 12 to […]. Values of unknown samples less than or equal to 20 ng/mL were reported from the lower range, and values greater than 20 ng/mL were reported from the higher range.
Elimination half-life (T½), maximum concentration (Cmax), time of maximum concentration (Tmax), area under the plasma concentration-time curve from time 0 through the final timepoint (AUC0-t), and area under the plasma concentration-time curve from time 0 extrapolated to infinity (AUC0-∞) were calculated for this study. The noncompartmental model for extravascular administration was used for all pharmacokinetic analyses. The calculation method was linear trapezoidal with linear/log interpolation. The elimination rate constant, lambda z (λz), was determined by WinNonlin using the best fit method.

The conditions of data set [4]: rabbits; for Serum glucose level: relative to predose baseline; for Serum potassium levels: relative to predose levels. The procedure:
as §1

The conditions of data set [5]: rabbit, in vivo, im, 0.3 mg.
Procedure: (§2) In a prospective, controlled, 5-way crossover study, five New Zealand white rabbits (mean weight 4.8±0.2 were investigated on five different days at least four weeks apart, using a protocol described previously (Gu et al., 1999). Each rabbit received EP 10 mg, EP 20 mg, and EP 40 mg as sublingual tablets, a placebo sublingual tablet (EP 0 mg) (as set forth in Table VI), and an EP 0.3 mg IM injection in the right thigh from EpiPen.
(§3) Using the same five New Zealand white rabbits (mean weight 4.8±0.2 Kg) as referred to supra, a prospective, controlled, 5-way crossover study was conducted, using a protocol described above (Gu et al., 1999), wherein each rabbit received an EP 40 mg sublingual tablet from each formulation set forth in Table XII and an EP 0.3 mg IM injection in the right thigh from EpiPen.
(§4) An indwelling catheter (OPTIVA 22G 1″, Johnson & Johnson) was inserted into an ear artery 30 min before dosing A 2 ml blood sample was obtained immediately before dosing and at 5, 10, 15, 20, 30, 40, 60, 90, 120, 150 and 180 minutes afterward.
(§5) Blood samples were refrigerated within 1 hour of sampling and centrifuged at 4° C. Plasma was frozen at −20° C. Before analysis, the plasma was thawed at room temperature and EP was extracted by a solid-liquid extraction process, with an efficiency of 70%-80%. […] The low range calibration curve was linear over the range of 0.1 to 1.0 ng/ml with a coefficient of variation of 0.8% at 0.1 ng and 1.4% at 1.0 ng. The high range calibration curve was linear over the range of 1.0 to 10.0 ng/ml with a coefficient of variation of 4.8% at 1.0 ng and 1.1% at 10.0 ng.
(§6) The AUC, Cmax, and Tmax values for each rabbit were compared using repeated measures ANOVA, Tukey-Kramer tests, and paired Students' t-test using NCSS Statistical Analysis Software (NCSS, Kaysville, Utah). Differences were considered to be significant at p<0.05.
Data set [6] in a line: in vivo. The conditions noted are these: New Zealand white, rabbit, im, 0.3 mg.
Procedure: as §2, §3, §4, §5, §6
The mark [7] stands for this setting: rabbits, 0.3 mg IM, mean ± SD, listed as epinephrine.
Setting [8] is: rabbits, 15 mg sublingual tablet, N = 1.
The mark [9] stands for this setting: rabbits, 15 mg sublingual tablet, mean ± SD.
Where [10] appears, read: rabbits, 30 mg sublingual tablet, mean ± SD.
[11] abbreviates: rabbits, 30 mg sublingual tablet, mean ± SD, listed as epinephrine.
[12] abbreviates: rabbits, 60 mg sublingual (2x30 mg tablets), mean ± SD.

As for `CNC[C@H](O)c1ccc(O)c(O)c1` [EPBT, (−)-3,4-dihydroxy-α-[(methylamino)methyl]benzyl alcohol (+)-tartrate (1:1) salt], the Dissolution of crystals entry in data set [1] is “incomplete after 5 minutes; also recorded: slow and incomplete at the end of 5 minutes”. The Water solubility in data set [2] is reported as 1 gm in 3 ml water.

`OC[C@@H](O)[C@@H](O)[C@H](O)[C@H](O)CO` [Mannitol]: the Water solubility in data set [2] is on record as 1 gm in 5.5 ml water.

With `CNC[C@H](O)c1ccc(O)c(O)c1` [Epinephrine], the AUC(0-inf) was 196 ng·h/mL in “in vivo [3]” (15 mg); 86.7 ng·h/mL in “in vivo [3]” (30 mg); 300 ng·h/mL in “in vivo [3]” (60 mg); 78.4 ng·h/mL in “in vivo [3]” (im, 0.3 mg). For the same compound, the AUC(0-t) in the data set “in vivo [3]” (15 mg) was 74.9 ng·h/mL; in the data set “in vivo [3]” (30 mg), 82.3 ng·h/mL; in the data set “in vivo [3]” (60 mg) it was 242 ng·h/mL; in “in vivo [3]” (im, 0.3 mg), 54.3 ng·h/mL. Further, the Cmax in the data set “in vivo [3]” (15 mg) came out at 119 ± 131 ng/mL; in “in vivo [3]” (30 mg), 142 ± 192 ng/mL; in “in vivo [3]” (60 mg), 234 ± 182 ng/mL; in “in vivo [3]” (im, 0.3 mg) it was 54.7 ± 28.3 ng/mL; in “in vivo [6]” it was 50.3 ± 17.1 ng/mL. The Tmax in “in vivo [3]” (15 mg) is 59.2 min; in “in vivo [3]” (30 mg), 36.7 min; in “in vivo [3]” (60 mg), 44.2 min; in “in vivo [3]” (im, 0.3 mg) it was 24 min; in the data set “in vivo [6]”, 21 min. For the same compound, the half-life was 181 ± 36.3 min in “in vivo [3]” (15 mg); 86.3 ± 60.5 min in “in vivo [3]” (30 mg); 141 ± 135 min in the data set “in vivo [3]” (60 mg); 91.3 ± 44.3 min in “in vivo [3]” (im, 0.3 mg). The Cmax1 in the data set “in vivo [3]” (rabbits, 0.3 mg IM, mean ± SD) stood at 26.6 ± 9.4 ng/mL; in “in vivo [3]” (setting [9]) it was 55.4 ± 87.6 ng/mL; in “in vivo [3]” (setting [10]) it was 147.5 ± 215.7 ng/mL; in the data set “in vivo [3]” (setting [12]), 154.0 ± 125.4 ng/mL. In addition, the Cmax2 in the data set “in vivo [3]” (rabbits, 0.3 mg IM, mean ± SD) was 42.7 ± 18.1 ng/mL; in the data set “in vivo [3]” (setting [7]), 42.7 ± 18.1 ng/mL; in “in vivo [3]” (setting [9]) it was 30.4 ± 25.7 ng/mL; in the data set “in vivo [3]” (setting [10]) it was 82.2 ± 102.1 ng/mL; in the data set “in vivo [3]” (setting [11]), 82.2 ± 102.1 ng/mL; in “in vivo [3]” (setting [12]) it was 85.4 ± 35.3 ng/mL. The Tmax1 was found to be 9.0 ± 2.2 min in the data set “in vivo [3]” (rabbits, 0.3 mg IM, mean ± SD); 9.0 ± 2.2 min in “in vivo [3]” (setting [7]); 9.2 ± 2.0 min in “in vivo [3]” (setting [9]); 8.3 ± 4.1 min in the data set “in vivo [3]” (setting [10]); 8.4 ± 4.1 min in “in vivo [3]” (setting [11]); 14.2 ± 8.6 min in the data set “in vivo [3]” (setting [12]). Moreover, in “in vivo [3]” (rabbits, 60 mg sublingual (2x30 mg tablets), mean ± SD, listed as epinephrine), the Tmax1 stood at 14.2 ± 8.6 min. For the same compound, in “in vivo [3]” (setting [8]), the Cmax4 is reported as 55.10 ng/mL. For the same compound, the Tmax4 in the data set “in vivo [3]” (setting [8]) was determined as 180.0 min. Further, the values for the Cmax3 in the data set “in vivo [3]” (setting [9]), in “in vivo [3]” (setting [10]) and in the data set “in vivo [3]” (setting [12]) were 85.2 ± 127.8 ng/mL, 45.5 ± 44.3 ng/mL and 127.8 ± 83.8 ng/mL, respectively. Moreover, the Tmax3 in the data set “in vivo [3]” (setting [9]) is 111.7 ± 59.5 min. The Serum glucose level entry in data set [4] (0.3 mg IM) and in data set [4] (60 mg sublingual) was “increase in serum glucose level” throughout. Further, the Serum potassium levels result in data set [4] (30 mg sublingual) and in data set [4] (60 mg sublingual) was “decreased” throughout. This compound also came in with an AUC in data set [5] of 2431 ± 386 ng/mL/min.

What is called AUC(0-inf) is the area under the concentration-time curve extrapolated to infinity. In general, AUC(0-t) refers to exposure summed from dosing to a finite time, without extrapolation to infinity. By Cmax is commonly meant the maximum level reached in the sampled fluid or tissue. As a reminder, the Tmax is the time at which the peak concentration occurs. In general, half-life refers to how long it takes for the measured level to halve.
